Results from PMC5218480 (PLoS ONE, 2017).
Where two headings read alike, the source gives them in different places.

Legend:
HL-60 cells = experiment: Cell viability assay (CellTiter-Glo); details: read-out: IC50 cell viability HL-60; 72 hours
Procedure: (§1) MV-4-11, Kasumi-1, and HL-60 AML cell lines were all obtained from ATCC. MOLM-13 and NB-4 cell lines were obtained from DSMZ. […] The identity of each cell line was validated and documented by the suppliers. All experiments were performed with cells maintained at low passage numbers.
(§2) Compounds and/or solvent dimethyl sulfoxide (DMSO) were added at the same time using an HP D300 digital dispenser (Hewlett Packard) in triplicate or quadruplicate and incubated for 72 hours at 37°C. Viability was measured by adding 25 μL CellTiter-Glo (Promega), incubating for 10 minutes, and measuring luminescence on a SpectraMax (Molecular Devices). […] CI < 1 indicates synergism, CI = 1 indicates additivity, and CI > 1 indicates antagonism.

[1] = tested on: five human AML cell lines (MV-4-11, Kasumi-1, HL-60, MOLM-13, NB-4); experiment: Cell viability assay, summary over five human AML cell lines; details: 72 hours
Procedure: as §1, §2

MV-4-11 cells = experiment: Cell viability assay (CellTiter-Glo), single agent and combination; details: read-out: IC50 cell viability MV-4-11; 72 hours
Procedure: as §1, §2

HDAC8 = biological target: T1, HDAC8 (Homo sapiens, UniProt Q9BY41); experiment: HDAC enzyme assay, in vitro biochemical; details: maximum concentration tested of 20 μM
T1 construct: purchased BPS Biosciences
T1 sequence (Q9BY41 1-377): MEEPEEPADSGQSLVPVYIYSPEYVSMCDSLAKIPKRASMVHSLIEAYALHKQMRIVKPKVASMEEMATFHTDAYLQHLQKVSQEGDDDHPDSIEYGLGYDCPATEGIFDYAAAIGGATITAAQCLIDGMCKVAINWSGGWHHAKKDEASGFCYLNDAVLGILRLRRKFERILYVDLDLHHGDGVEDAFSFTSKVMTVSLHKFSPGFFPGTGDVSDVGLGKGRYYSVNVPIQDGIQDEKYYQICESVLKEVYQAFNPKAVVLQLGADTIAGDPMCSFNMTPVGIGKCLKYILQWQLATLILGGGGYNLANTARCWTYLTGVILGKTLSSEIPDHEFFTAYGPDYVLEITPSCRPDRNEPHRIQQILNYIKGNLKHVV
Procedure: In vitro biochemical assays were performed as described previously. Specifically, compounds were dissolved and diluted in assay buffer (50 mM HEPES, pH 7.4, 100 mM KCl, 0.001% Tween-20, 0.05% BSA, and 20 μM Tris (2-carboxyethyl) phosphine) to 6-fold the final concentration. […] The amount of substrate (acetyl-lysine tripeptide) used for each enzyme was equal to the Michaelis constant (Km), as determined by a titration curve. Substrate was diluted in assay buffer to 6-fold of the final concentration with 0.3 μM sequencing grade trypsin (Sigma-Aldrich). The substrate/trypsin mix was added to the enzyme/compound mix and the plate was shaken for 5 seconds and then placed into a SpectraMax M5 microtiter (Molecular Devices) plate reader. The enzymatic reaction was monitored over 30 minutes for release of […] after deacetylation of the lysine side chain in the peptide substrate, and the linear rate of the reaction was calculated.
biochemical assay for HDAC4, HDAC5, HDAC6, HDAC7, HDAC8, HDAC9 inhibition by ACY-1035.
(1 picture or pasted object on this page, not shown here)

[2] = tested on: MV-4-11, Kasumi-1 and HL-60 cell lines; experiment: Histone acetylation by immunoblotting; assay type: cell-based, human; details: 24 hours, increasing doses
Source text: The EpiQuick Total Histone Extraction kit (Epigentek) was used to isolate histones. Histone lysates were size separated on Bolt 10% Bis-Tris gradient gels (Life Technologies), transferred to polyvinylidene difluoride membranes, blocked in 5% BSA, and detected using standard western blotting techniques.

MOLM-13 cells = experiment: Cell viability assay (CellTiter-Glo), single agent and combination; details: read-out: IC50 cell viability MOLM-13; 72 hours
Procedure: as §1, §2

**Q.** Which results are given for `Nc1ccc(-c2cccs2)cc1NC(=O)c1ccc2c(c1)cc(C1CC1)n2CCN1CCOCC1` [ACY-1035]?
**A.** IC50 (HL-60 cells): 3.3 µM; IC50 ([1]; read-out: IC50 values cell viability, range, five human AML cell lines, both compounds): 0.8 to 3.3 µM; IC50 ([1]; read-out: average IC50 value, viability of AML cells, average of five AML cell lines): 2.6 µM; IC50 (MV-4-11 cells): 1.4 µM; inhibition of HDAC8 (HDAC8): did not inhibit; acetylation on histone H2B lysine 5 (H2BK5ac) and histone H3 lysine 56 (H3K56ac) [2]: dose-dependent accumulation; IC50 (MOLM-13 cells): 2.9 µM
